Results on 28 molecules are retold here after ChEMBL document CHEMBL3813666, “Discovery of 3-benzyl-1,3-benzoxazine-2,4-dione analogues as allosteric mitogen-activated kinase kinase (MEK) inhibitors and anti-enterovirus 71 (EV71) agents” (Bioorg Med Chem, 2016).

The term IC50 denotes the point on the concentration scale where inhibition reaches its midpoint. What is called EC50 is the concentration needed to bring the measured effect to its halfway point. One may read the CC50 as the concentration at which the toxic effect on the cells reaches its halfway point.

Data set [1] concerns the target Serine/threonine-protein kinase B-raf (Homo sapiens, UniProt P15056, Y340D/Y341D).
Data set [2] deals with Enterovirus A71. Description: Antiviral activity against EV71 BC08 GU475127 infected in human rhabdomyosarcoma cells assessed as reduction in viral induced cytopathic effect measured after 24 hrs by phase-contrast microscopy. Type of data set: functional, organism-based. The following applies: Enterovirus A, BC08 GU475127, 24 h.
Data set [3] deals with Enterovirus A71. In words: Inhibition of VP1 expression in human rhabdomyosarcoma cells infected with EV71 BC08 GU475127 pre-treated for 1 hr followed by viral infection measured after 24 hrs by western blotting analysis.
Data set [4] in a line: Therapeutic index, ratio of CC50 for human rhabdomyosarcoma cells to EC50 for EV71 BC08 GU475127 infected in human rhabdomyosarcoma cells. The note with it: read-out: Ratio CC50/EC50.
Data set [5] can be described thus: Cytotoxicity activity against human rhabdomyosarcoma cells after 24 hrs by MTT assay. Type of data set: cell-based, Rhabdomyosarcoma cell.
Data set [6] addresses Dual specificity mitogen-activated protein kinase kinase; MEK1/2 (Homo sapiens) (UniProt P36507+Q02750). Description: Inhibition of MEK1/2 phosphorylation in human rhabdomyosarcoma cells infected with EV71 BC08 GU475127 at 6.25 to 25 uM pre-treated for 1 hr followed by viral infection measured after 24 hrs by western blotting analysis.
A short description of data set [7]: Non-competitive inhibition of N-terminal GST-tagged human BRAF/MEK1/RAF1 Y340D/Y341D double mutant measured after 2 hrs in presence of 33.33 uM of ATP by TR-FRET assay. A general note: In TR-FRET formats the signal depends on donor and acceptor labels being close together.
The nature of data set [8]: Non-competitive inhibition of N-terminal GST-tagged human BRAF/MEK1/RAF1 Y340D/Y341D double mutant measured after 2 hrs in presence of 100 uM of ATP by TR-FRET assay.
Data set [9] can be described thus: Non-competitive inhibition of N-terminal GST-tagged human BRAF/MEK1/RAF1 Y340D/Y341D double mutant measured after 2 hrs in presence of 300 uM of ATP by TR-FRET assay.
Data set [10] has as its target Dual specificity mitogen-activated protein kinase kinase 1 (Homo sapiens) (UniProt Q02750). The following applies: at 6.25 to 25 µM.

Activity calls are given as the source filed them. No cut-off for these calls is given here. Where only a bound is given, the exact number is not on record here.

Serine/threonine-protein kinase B-raf, sequence (P15056 whole entry, looked up, stated change not applied): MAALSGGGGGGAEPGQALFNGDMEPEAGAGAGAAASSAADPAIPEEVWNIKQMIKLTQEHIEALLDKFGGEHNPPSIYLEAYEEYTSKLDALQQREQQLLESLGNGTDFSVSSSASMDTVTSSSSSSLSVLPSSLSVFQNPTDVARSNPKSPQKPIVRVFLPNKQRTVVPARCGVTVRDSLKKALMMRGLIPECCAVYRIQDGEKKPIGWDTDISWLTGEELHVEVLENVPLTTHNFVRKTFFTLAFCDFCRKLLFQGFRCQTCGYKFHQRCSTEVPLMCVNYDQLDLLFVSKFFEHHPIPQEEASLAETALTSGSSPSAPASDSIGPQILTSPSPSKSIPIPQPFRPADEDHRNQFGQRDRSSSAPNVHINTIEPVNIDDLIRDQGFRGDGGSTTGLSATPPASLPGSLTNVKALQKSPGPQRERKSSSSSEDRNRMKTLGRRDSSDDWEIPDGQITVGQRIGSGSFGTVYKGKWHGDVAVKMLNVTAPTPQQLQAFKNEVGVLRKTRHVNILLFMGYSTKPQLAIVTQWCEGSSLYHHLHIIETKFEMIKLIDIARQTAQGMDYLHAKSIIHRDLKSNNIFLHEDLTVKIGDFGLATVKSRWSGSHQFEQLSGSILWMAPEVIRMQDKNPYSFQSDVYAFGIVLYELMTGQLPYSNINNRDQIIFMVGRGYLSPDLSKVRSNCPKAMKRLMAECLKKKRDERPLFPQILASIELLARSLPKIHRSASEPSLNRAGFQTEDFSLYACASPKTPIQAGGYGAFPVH
Dual specificity mitogen-activated protein kinase kinase; MEK1/2 (Homo sapiens), sequence (P36507 whole entry, looked up): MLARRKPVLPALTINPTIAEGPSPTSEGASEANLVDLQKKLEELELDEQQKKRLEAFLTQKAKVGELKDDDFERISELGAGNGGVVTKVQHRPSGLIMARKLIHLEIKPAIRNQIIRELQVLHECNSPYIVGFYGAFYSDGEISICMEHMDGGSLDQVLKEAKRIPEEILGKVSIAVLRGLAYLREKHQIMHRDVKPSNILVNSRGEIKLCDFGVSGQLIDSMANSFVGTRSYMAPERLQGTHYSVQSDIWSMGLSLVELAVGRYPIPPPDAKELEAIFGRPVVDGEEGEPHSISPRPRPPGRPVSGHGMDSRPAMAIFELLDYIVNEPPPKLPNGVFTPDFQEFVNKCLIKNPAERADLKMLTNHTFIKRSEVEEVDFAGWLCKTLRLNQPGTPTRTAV
Dual specificity mitogen-activated protein kinase kinase; MEK1/2 (Homo sapiens), sequence (Q02750 whole entry, looked up): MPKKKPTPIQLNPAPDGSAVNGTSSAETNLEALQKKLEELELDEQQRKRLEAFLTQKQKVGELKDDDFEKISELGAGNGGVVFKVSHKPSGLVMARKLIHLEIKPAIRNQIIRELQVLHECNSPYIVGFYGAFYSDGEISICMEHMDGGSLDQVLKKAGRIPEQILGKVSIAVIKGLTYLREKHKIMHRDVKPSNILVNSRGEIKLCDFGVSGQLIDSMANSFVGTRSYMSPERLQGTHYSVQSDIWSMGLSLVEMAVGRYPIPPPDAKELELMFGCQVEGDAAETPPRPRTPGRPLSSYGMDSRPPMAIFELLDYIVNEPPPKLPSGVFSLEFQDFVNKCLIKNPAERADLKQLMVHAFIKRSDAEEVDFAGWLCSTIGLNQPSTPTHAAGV
Dual specificity mitogen-activated protein kinase kinase 1 (Homo sapiens), sequence (Q02750 whole entry): as the sequence (Q02750 whole entry, looked up) above

On to `CN(C)C(=O)Oc1ccc2c(=O)n(Cc3ccccc3F)c(=O)oc2c1`, for which, in [1], the IC50 was above 10000 nM. In the case of `CN(C)C(=O)Oc1ccc2c(=O)n(Cc3cccc(NS(C)(=O)=O)c3)c(=O)oc2c1`, inhibition in [1] was half-maximal at 5920 nM (IC50). In the case of `CN(C)C(=O)Oc1ccc2c(=O)n(Cc3cccc(NS(=O)(=O)NCC(F)(F)F)c3F)c(=O)oc2c1`, in [1], the IC50 is 420 nM. On the same count and under the same terms, under `CN(C)C(=O)Oc1ccc2oc(=O)n(Cc3cccc(NS(C)(=O)=O)c3F)c(=O)c2c1` stands above 10000 nM. As for `CN(C)C(=O)Oc1ccc2c(=O)n(Cc3cccc(NS(=O)(=O)NCCC#N)c3F)c(=O)oc2c1`, the EC50 with Enterovirus A71 [2] was found to be 3920 nM. The inhibition entry in the data set with Enterovirus A71 [3] is “Dose-dependent effect”. For the same molecule, the selectivity ratio in [4] is above 25. Besides, the CC50 at 24 h in data set [5] is above 100000 nM. In addition, the inhibition entry in [6] was “Active”. Besides, the IC50 in data set [1] came out at 60 nM. `CN(C)C(=O)Oc1ccc2c(=O)n(Cc3cccc(NS(N)(=O)=O)c3F)c(=O)oc2c1`: the IC50 in [1] worked out at 840 nM. Consider `CN(C)C(=O)Oc1ccc2c(=O)n(Cc3cccc(NS(C)(=O)=O)c3F)c(=O)oc2c1`, for which inhibition in [1] was half-maximal at 300 nM (IC50). In turn, `CN(C)C(=O)Oc1ccc2c(=O)n(Cc3ccccc3NS(C)(=O)=O)c(=O)oc2c1` registered an IC50 in [1] above 10000 nM. As to `CN(C)C(=O)Oc1ccc2c(=O)n(Cc3ccc(F)cc3)c(=O)oc2c1`, the IC50 in data set [1] is above 10000 nM. Take `CS(=O)(=O)Nc1cccc(Cn2c(=O)oc3cc(OC(=O)c4ccccc4)ccc3c2=O)c1F`: the IC50 in data set [1] is above 10000 nM. Molecule `CCS(=O)(=O)Oc1ccc2c(=O)n(Cc3cccc(NS(=O)(=O)NC)c3F)c(=O)oc2c1` yielded an IC50 in [1] of 670 nM. On to `CNS(=O)(=O)Nc1cccc(Cn2c(=O)oc3cc(OC(C)=O)ccc3c2=O)c1F`, for which half-maximal inhibition in [1] (IC50) required 610 nM.

As to `CNC(=O)c1cc(Oc2ccc(NC(=O)Nc3ccc(Cl)c(C(F)(F)F)c3)cc2)ccn1` [SORAFENIB], in data set [5], the midpoint of cytotoxicity, the CC50 at 24 h, lay at 7050 nM. `CC(C)NS(=O)(=O)Nc1cccc(Cn2c(=O)oc3cc(OC(=O)N(C)C)ccc3c2=O)c1F`: the IC50 in data set [1] amounted to 210 nM. Regarding `CN(C)C(=O)Oc1ccc2c(=O)n(Cc3cccc(NS(=O)(=O)Nc4ccccc4)c3F)c(=O)oc2c1`, the IC50 in data set [1] came out at 1640 nM. The molecule `CN(C)C(=O)Oc1ccc2c(=O)n(Cc3cccc([N+](=O)[O-])c3)c(=O)oc2c1` gave a 50% inhibitory concentration (IC50) in data set [1] above 10000 nM. `CCCC(=O)Oc1ccc2c(=O)n(Cc3cccc(NS(=O)(=O)NC)c3F)c(=O)oc2c1` showed an IC50 in data set [1] of 1200 nM. Consider `CNS(=O)(=O)Nc1cccc(Cn2c(=O)oc3cc(OC(=O)N(C)C)ccc3c2=O)c1F`, for which, in the data set on Enterovirus A71 [2], the EC50 was found to be 1020 nM. In addition, the inhibition entry in the data set on Enterovirus A71 [3] is “Dose-dependent effect”. Moreover, the selectivity ratio in data set [4] was above 98. Also, the IC50 in data set [7] came out at 181 nM; in [8] it was 56 nM; in data set [9], 54 nM; in [1], 55 nM. The same molecule displayed a CC50 at 24 h in [5] above 100000 nM. For the same molecule, the inhibition entry in data set [6] and in data set [10] was “Active” throughout.

In turn, `CN(C)C(=O)Oc1ccc2c(=O)n(Cc3ccc(F)c(NS(C)(=O)=O)c3)c(=O)oc2c1` yielded an IC50 in data set [1] of 9870 nM. Consider `CNS(=O)(=O)Nc1cccc(Cn2c(=O)oc3cc(OC(=O)C(C)C)ccc3c2=O)c1F`, for which the IC50 in [1] stood at 720 nM.

Molecule `CCC(=O)Oc1ccc2c(=O)n(Cc3cccc(NS(=O)(=O)NC)c3F)c(=O)oc2c1` registered an IC50 in [1] of 230 nM. `CC(=O)Nc1cccc(Cn2c(=O)oc3cc(OC(=O)N(C)C)ccc3c2=O)c1` yielded an IC50 in data set [1] above 10000 nM. In turn, `CN(C)C(=O)Oc1ccc2c(=O)n(Cc3ccc(NS(C)(=O)=O)cc3)c(=O)oc2c1` gave an IC50 in data set [1] above 10000 nM. For the molecule `O=C(NOC[C@H](O)CO)c1ccc(F)c(F)c1Nc1ccc(I)cc1F`, the inhibition entry in the data set on Enterovirus A71 [3] was “Dose-dependent effect”. `COc1ccc2c(=O)n(Cc3cccc(NS(=O)(=O)NCCC#N)c3F)c(=O)oc2c1`: the IC50 in data set [1] is above 10000 nM. For `CN(C)C(=O)Oc1ccc2c(=O)n(Cc3cccc(NS(=O)(=O)NCc4ccccc4)c3F)c(=O)oc2c1`, the IC50 in data set [1] stood at 1490 nM.

For `CNS(=O)(=O)Nc1cccc(Cn2c(=O)oc3cc(OS(C)(=O)=O)ccc3c2=O)c1F`, in data set [1], the IC50 came out at 2540 nM.

In data set [1], `CCS(=O)(=O)Nc1cccc(Cn2c(=O)oc3cc(OC(=O)N(C)C)ccc3c2=O)c1F` yielded an IC50 of 200 nM.
